Like-named read-outs stand apart in the source and are kept apart here.
What was measured:
[1] = design: method as in PMID 36671001; settings: selenoester analogs, 0.03 mg/mL, 90 min; cited from earlier work
[2] = tested on: HTB-54 (lung) cancer cell line; assay: MTT cell viability assay, HTB-54; type: cell-based, human; settings: Homo sapiens, HTB-54, 48 h; for activity at 10 µM: read-out: Cell growth %, HTB-54, 10 µM, 48 h, MTT; for activity at 50 µM: read-out: Cell growth %, HTB-54, 50 µM, 48 h, MTT
Description: (§1) Cell lines were purchased from the American Type Culture Collection (ATCC). Cell lines MDA-MB-231, HTB-54, DU-145, and BEAS-2B were cultured in RPMI 1640 medium (Gibco, Thermo Fisher Scientific, Gaithersburg, MD, USA) supplemented with 10% fetal bovine serum (FBS; Gibco), 100 units/mL penicillin, and […] streptomycin (Gibco). HT-29 cell line was grown in McCoy’s 5A (Gibco), 10% FBS, 100 units/mL penicillin, and 100 μg/mL streptomycin. Cells were maintained at 37 °C and 5% CO2. The culture medium was changed every three days.
(§2) The cell viability of each compound was measured by MTT colorimetric assay. Each compound was dissolved in DMSO at a concentration of 0.01 M. Each compound was tested at two different concentrations (10 and 50 µM) in MDA-MB-231 (breast), HTB-54 (lung), DU-145 (prostate), and HT-29 (colon) human cancer cell lines. Serial dilutions were prepared with supplemented culture medium. […] IC50 and selectivity indexes (SI) were determined.
(§3) Briefly, 1 × 10^4 tumor cells per well were grown in 96-well plates for 24 h. Then, these cells were incubated for 48 h with either DMSO (control) or a different concentration of each of the tested compounds. The cell viability was determined by adding 20 μL of MTT two hours and a half before the termination point. After this time, the culture medium was removed. The resulting formazan crystals were dissolved in 50 μL of DMSO, and the absorbance was measured at 570 nm. Results are expressed as % cell growth. The data were obtained from at least three independent experiments performed in quadruplicate.

[3] = tested on: MDA-MB-231 (breast) cancer cell line; assay: MTT cell viability assay, MDA-MB-231; type: cell-based, human; settings: Homo sapiens, MDA-MB-231, 48 h; for activity at 10 µM: read-out: Cell growth %, MDA-MB-231, 10 µM, 48 h, MTT; for activity at 50 µM: read-out: Cell growth %, MDA-MB-231, 50 µM, 48 h, MTT
Description: as §1, §2, §3

[4] = tested on: DU-145 (prostate) cancer cell line; assay: MTT cell viability assay, DU-145; type: cell-based, human; settings: for activity at 10 µM / activity at 50 µM: Homo sapiens, DU-145, 48 h; for activity at 10 µM: read-out: Cell growth %, DU-145, 10 µM, 48 h, MTT; for activity at 50 µM: read-out: Cell growth %, DU-145, 50 µM, 48 h, MTT
Description: as §1, §2, §3

[5] = DPPH radical scavenging assay; type: biochemical; settings: for DPPH Inhibitory%: acylselenourea analogs
Description: Different methods are available to quantify the antioxidant capacity of natural or novel molecules. Notable among these are the ABTS^•+ and DPPH^• methods, which measure the quenching efficiency in vitro for known concentrations of preformed radicals. In this work, the DPPH^• colorimetric assay was carried out. Measurements were recorded on a BioTeck PowerWave XS spectrophotometer (BioTeck Instruments, Winooski, VT, USA) and data were collected using KCJunior v.1.41. software (BioTeck Instruments, Winooski, VT, USA). Compounds with potent activity were selected to further determine their protective effect against ROS-induced cell death caused by H2O2.
DPPH colorimetric assay was performed to determine the in vitro radical scavenging activity of the acylselenourea derivatives. DPPH assay was performed as described by Svinyarov. For each acylselenourea, a stock solution of 1 mg/mL in dimethyl sulfoxide (DMSO) was made, and these solutions were used to prepare the different concentrations employed in the assay. The compounds were tested at two different concentrations (0.003 and 0.03 mg/mL). Intermediate solutions were prepared in methanol and a volume of 100 µL of each was added to each well of the plate. Then, 100 µL of DPPH^• (previously prepared at a concentration of 0.04 mg/mL in methanol and preserved in the dark) was added to the previous methanolic acylselenourea solutions. The discoloration of the purple radical to the yellow reduced form was followed at 517 nm at different time points (0, 5, 15, 30, 60, 90, and 120 min). Ascorbic acid and trolox were used as positive controls. All measurements were carried out in triplicate. Results are expressed as the percentage of the radicals scavenged, calculated using the following formula: (1) % DPPH radical scavenging=Acontrol - Asample/Acontrol × 100 where Acontrol refers to the absorbance of the negative control and Asample refers to the absorbance of the tested compounds. Results are expressed as percentage of DPPH radical scavenging ± SD.

[6] = tested on: HT-29 (colon) cancer cell line; assay: MTT cell viability assay, HT-29; type: cell-based; settings: Homo sapiens, HT-29, 48 h, read-out: Cell growth %; for activity at 10 µM: HT-29, 10 µM; for activity at 50 µM: HT-29, 50 µM
Description: as §1, §2, §3

## C=CC[Se]C(=O)c1cccs1 [C00001 2-thiophenyl]
[1]
  DPPH Inhibitory%: 7.8 ± 10.4%

## C=CC[Se]C(=O)C=Cc1ccccc1 [C00001 2-phenylvinyl]
[1]
  DPPH Inhibitory%: 3.6 ± 5.3%

## C#CC[Se]C(=O)c1ccco1 [C00003 2-furyl]
[1]
  DPPH Inhibitory%: 5.4 ± 2.3%

## C=CC[Se]C(=O)c1cccnc1 [C00001 3-pyridyl]
[1]
  DPPH Inhibitory%: 6.3 ± 2.9%

## C#CC[Se]C(=O)c1ccc2c(c1)OCO2 [C00003 5-benzo[d][1, 3]dioxyl]
[1]
  DPPH Inhibitory%: 4.2 ± 8.0%

## C=CC[Se]C(=O)c1ccc2c(c1)OCO2 [C00001 5-benzo[d][1, 3]dioxyl]
[1]
  DPPH Inhibitory%: 0.0 ± 2.3%

## C=CC[Se]C(=O)c1ccco1 [C00001 2-furyl]
[1]
  DPPH Inhibitory%: 4.6 ± 7.5%

## C#CC[Se]C(=O)C=Cc1ccccc1 [C00003 2-phenylvinyl]
[1]
  DPPH Inhibitory%: 2.4 ± 2.0%

## C=CC[Se]C(=O)c1ccccc1 [C00001 phenyl]
[1]
  DPPH Inhibitory%: 9.0 ± 1.2%

## C#CC[Se]C(=O)c1cccs1 [C00003 2-thiophenyl]
[1]
  DPPH Inhibitory%: 0.0 ± 2.1%

## C#CC[Se]C(=O)c1ccccc1 [C00003 phenyl]
[1]
  DPPH Inhibitory%: 3.5 ± 0.9%

## C#CCNC(=[Se])NC(=O)c1ccco1 [Compound 1.III, N-(prop-2-in-1-ylcarbamoselenoyl)furan-2-carboxamide]
[2]
  activity at 10 µM: 76 ± 4.8%
  activity at 50 µM: 48 ± 4.2%
[3]
  activity at 10 µM: 66.3 ± 16.7%
  activity at 50 µM: 17.6 ± 9.3%
[4]
  activity at 10 µM: 42.4 ± 4.8%
  activity at 50 µM: 15.2 ± 1.2%
[5]; 0.003 mg/mL, 0 min
  inhibition: 1.5 ± 0.7%
[5]; 0.003 mg/mL, 5 min
  inhibition: 3.4 ± 0.6%
[5]; 0.003 mg/mL, 15 min
  inhibition: 4.9 ± 0.7%
[5]; 0.003 mg/mL, 30 min
  inhibition: 6.5 ± 0.7%
[5]; 0.003 mg/mL, 60 min
  inhibition: 8.5 ± 1%
[5]; 0.003 mg/mL, 90 min
  inhibition: 9.6 ± 0.9%
[5]; 0.003 mg/mL, 120 min
  inhibition: 10 ± 0.8%
[5]; 0.03 mg/mL, 0 min
  inhibition: 11.8 ± 1.7%
[5]; 0.03 mg/mL, 5 min
  inhibition: 15.2 ± 4.4%
[5]; 0.03 mg/mL, 15 min
  inhibition: 23.5 ± 3.9%
[5]; 0.03 mg/mL, 30 min
  inhibition: 31.2 ± 3.7%
[5]; 0.03 mg/mL, 60 min
  inhibition: 40.9 ± 4.3%
[5]; 0.03 mg/mL, 120 min
  inhibition: 48.1 ± 0.4%
[5]; 0.03 mg/mL, 90 min
  DPPH Inhibitory%: 42.6 ± 0.6%
[6]
  activity at 10 µM: 84 ± 16.8%
  activity at 50 µM: 17.2 ± 4.2%

## C#CC[Se]C(=O)c1cccnc1 [C00003 3-pyridyl]
[1]
  DPPH Inhibitory%: 7.4 ± 0.7%

## C#CCNC(=[Se])NC(=O)c1ccccc1 [Compound 5.III, N-(prop-2-in-1-ylcarbamoselenoyl)benzamide]
[2]
  activity at 10 µM: 76 ± 4.8%
  activity at 50 µM: 33.4 ± 8.6%
[3]
  activity at 10 µM: 78.5 ± 12%
  activity at 50 µM: 33.3 ± 6.5%
[4]
  activity at 10 µM: 80.8 ± 7.4%
  activity at 50 µM: 26.3 ± 6.5%
[5]; 0.003 mg/mL, 0 min
  inhibition: 0.6 ± 1.2%
[5]; 0.003 mg/mL, 5 min
  inhibition: 2.9 ± 1%
[5]; 0.003 mg/mL, 15 min
  inhibition: 5.1 ± 1.3%
[5]; 0.003 mg/mL, 30 min
  inhibition: 7.2 ± 1.6%
[5]; 0.003 mg/mL, 90 min
  inhibition: 11.3 ± 2%
[5]; 0.003 mg/mL, 120 min
  inhibition: 12.3 ± 2.1%
[5]; 0.03 mg/mL, 0 min
  inhibition: 9.3 ± 1%
[5]; 0.03 mg/mL, 5 min
  inhibition: 9.8 ± 0.3%
[5]; 0.03 mg/mL, 15 min
  inhibition: 23 ± 0.3%
[5]; 0.03 mg/mL, 30 min
  inhibition: 34 ± 0.6%
[5]; 0.03 mg/mL, 60 min
  inhibition: 46.6 ± 0.9%
[5]; 0.03 mg/mL, 120 min
  inhibition: 60.2 ± 0.7%
[5]; 0.03 mg/mL, 90 min
  DPPH Inhibitory%: 54.6 ± 0.8%
[6]
  activity at 10 µM: 70 ± 8.7%
  activity at 50 µM: 33.9 ± 4.5%

## C=CCNC(=[Se])NC(=O)/C=C/c1ccccc1 [Compound 6.II, N-(allylcarbamoselenoyl)cinnamamide]
[2]
  activity at 10 µM: 68.7 ± 8.2%
  activity at 50 µM: 44.1 ± 10.6%
[3]
  activity at 10 µM: 51.8 ± 6.8%
  activity at 50 µM: 30.5 ± 7.1%
[4]; DU-145, 10 µM, 48 h, MTT
  cell growth %: 57.30%
[4]
  activity at 10 µM: 57.3 ± 3.6%
  activity at 50 µM: 14.6 ± 4.5%
[5]; 0.003 mg/mL, 0 min
  inhibition: 0%
[5]; 0.003 mg/mL, 5 min
  inhibition: 0%
[5]; 0.003 mg/mL, 15 min
  inhibition: 0%
[5]; 0.003 mg/mL, 30 min
  inhibition: 0%
[5]; 0.003 mg/mL, 60 min
  inhibition: 0%
[5]; 0.003 mg/mL, 90 min
  inhibition: 0.5 ± 2.3%
[5]; 0.003 mg/mL, 120 min
  inhibition: 1.1 ± 2.3%
[5]; 0.03 mg/mL, 0 min
  inhibition: 0%
[5]; 0.03 mg/mL, 5 min
  inhibition: 1 ± 1.7%
[5]; 0.03 mg/mL, 15 min
  inhibition: 4.6 ± 1.3%
[5]; 0.03 mg/mL, 30 min
  inhibition: 9.8 ± 1.1%
[5]; 0.03 mg/mL, 60 min
  inhibition: 18.8 ± 0.9%
[5]; 0.03 mg/mL, 120 min
  inhibition: 34.2 ± 0.7%
[5]; 0.03 mg/mL, 90 min
  DPPH Inhibitory%: 26.7 ± 0.6%
[6]
  activity at 10 µM: 94.7 ± 5.3%
  activity at 50 µM: 56.1 ± 11%

Source: article PMC10376326, “Novel Acylselenourea Derivatives: Dual Molecules with Anticancer and Radical Scavenging Activity” (Antioxidants, 2023)
